# Assay results as given in patent EP0366385A1, “Guanine derivatives having antiviral activity and their pharmaceutically acceptable salts” (THE WELLCOME FOUNDATION LIMITED, priority 1988, dated 1990).
# pIC50: −log10 of the molar value.
# Test system: HIV
# Test: Antiviral activity against HIV (method of Mitsuya et al.)
# Format: cell-based
# Details: Human immunodeficiency virus 1, read-out: IC₅₀
# Method: The title compound of Example 1G (L-valine ester) and the title compound of Example 1F (the 1S, 4R enantiomeric form of carbovir) were tested for activity against HIV generally in accordance with the method described by Mitsuya et al, Proc. Natl. Acad. Sci. Vol. 82, pp 7096-7100, Oct. 1985 and found to have activity against HIV at the following concentrations
smiles,measurement,value
"Nc1nc2c(ncn2[C@H]2C=C[C@@H](CO)C2)c(=O)[nH]1 [Example 1F, (1R, 4S)-9-(4-Hydroxymethyl-2-cyclopentenyl)guanine]",pIC50,5.60
